The NIST ThermoML archive (doi:10.1021/je400486p)
± gives the expanded uncertainty stated by the source.

Test: xn = mol fraction of the nth substance listed
Details: 101.3 kPa, Liquid; for viscosity: Concentric cylinders viscometry; for mass density: Vibrating tube method

## COCCOCCOCCOCCOC [2,5,8,11,14-pentaoxapentadecane] + CCC(C)O
288.15 K, x2 = 0
  viscosity: 4.341 ± 0.051 mPa·s
  mass density: 1015.63 ± 0.24 kg/m3
288.15 K, x2 = 0.1007
  viscosity: 4.092 ± 0.048 mPa·s
  mass density: 1006.23 ± 0.21 kg/m3
288.15 K, x2 = 0.2003
  viscosity: 3.792 ± 0.044 mPa·s
  mass density: 995.702 ± 0.19 kg/m3
288.15 K, x2 = 0.3015
  viscosity: 3.531 ± 0.041 mPa·s
  mass density: 983.46 ± 0.18 kg/m3
288.15 K, x2 = 0.3991
  viscosity: 3.342 ± 0.038 mPa·s
  mass density: 969.921 ± 0.17 kg/m3
288.15 K, x2 = 0.5011
  viscosity: 3.157 ± 0.036 mPa·s
  mass density: 953.53 ± 0.15 kg/m3
288.15 K, x2 = 0.6024
  viscosity: 2.972 ± 0.034 mPa·s
  mass density: 934.399 ± 0.15 kg/m3
288.15 K, x2 = 0.6997
  viscosity: 2.853 ± 0.032 mPa·s
  mass density: 912.674 ± 0.14 kg/m3
288.15 K, x2 = 0.7998
  viscosity: 2.874 ± 0.032 mPa·s
  mass density: 885.897 ± 0.14 kg/m3
288.15 K, x2 = 0.9004
  viscosity: 3.166 ± 0.035 mPa·s
  mass density: 852.63 ± 0.15 kg/m3
293.15 K, x2 = 0
  viscosity: 3.834 ± 0.045 mPa·s
  mass density: 1011 ± 0.24 kg/m3
293.15 K, x2 = 0.1007
  viscosity: 3.582 ± 0.042 mPa·s
  mass density: 1001.61 ± 0.21 kg/m3
293.15 K, x2 = 0.2003
  viscosity: 3.32 ± 0.039 mPa·s
  mass density: 991.093 ± 0.19 kg/m3
293.15 K, x2 = 0.3015
  viscosity: 3.099 ± 0.036 mPa·s
  mass density: 978.877 ± 0.18 kg/m3
293.15 K, x2 = 0.3991
  viscosity: 2.941 ± 0.034 mPa·s
  mass density: 965.365 ± 0.17 kg/m3
293.15 K, x2 = 0.5011
  viscosity: 2.776 ± 0.032 mPa·s
  mass density: 949.011 ± 0.15 kg/m3
293.15 K, x2 = 0.6024
  viscosity: 2.61 ± 0.03 mPa·s
  mass density: 929.939 ± 0.15 kg/m3
293.15 K, x2 = 0.6997
  viscosity: 2.498 ± 0.028 mPa·s
  mass density: 908.32 ± 0.14 kg/m3
293.15 K, x2 = 0.7998
  viscosity: 2.497 ± 0.028 mPa·s
  mass density: 881.561 ± 0.15 kg/m3
293.15 K, x2 = 0.9004
  viscosity: 2.705 ± 0.03 mPa·s
  mass density: 848.418 ± 0.15 kg/m3
298.15 K, x2 = 0
  viscosity: 3.38 ± 0.04 mPa·s
  mass density: 1006.36 ± 0.23 kg/m3
298.15 K, x2 = 0.1007
  viscosity: 3.158 ± 0.037 mPa·s
  mass density: 996.991 ± 0.21 kg/m3
298.15 K, x2 = 0.2003
  viscosity: 2.937 ± 0.034 mPa·s
  mass density: 986.495 ± 0.19 kg/m3
298.15 K, x2 = 0.3015
  viscosity: 2.75 ± 0.032 mPa·s
  mass density: 974.305 ± 0.18 kg/m3
298.15 K, x2 = 0.3991
  viscosity: 2.603 ± 0.03 mPa·s
  mass density: 960.825 ± 0.17 kg/m3
298.15 K, x2 = 0.5011
  viscosity: 2.461 ± 0.028 mPa·s
  mass density: 944.498 ± 0.16 kg/m3
298.15 K, x2 = 0.6024
  viscosity: 2.316 ± 0.026 mPa·s
  mass density: 925.479 ± 0.15 kg/m3
298.15 K, x2 = 0.6997
  viscosity: 2.21 ± 0.025 mPa·s
  mass density: 903.877 ± 0.15 kg/m3
298.15 K, x2 = 0.7998
  viscosity: 2.187 ± 0.025 mPa·s
  mass density: 877.228 ± 0.15 kg/m3
298.15 K, x2 = 0.9004
  viscosity: 2.337 ± 0.026 mPa·s
  mass density: 844.144 ± 0.15 kg/m3
303.15 K, x2 = 0
  viscosity: 3.004 ± 0.036 mPa·s
  mass density: 1001.73 ± 0.23 kg/m3
303.15 K, x2 = 0.1007
  viscosity: 2.805 ± 0.033 mPa·s
  mass density: 992.377 ± 0.21 kg/m3
303.15 K, x2 = 0.2003
  viscosity: 2.627 ± 0.031 mPa·s
  mass density: 981.894 ± 0.19 kg/m3
303.15 K, x2 = 0.3015
  viscosity: 2.472 ± 0.029 mPa·s
  mass density: 969.723 ± 0.18 kg/m3
303.15 K, x2 = 0.3991
  viscosity: 2.344 ± 0.027 mPa·s
  mass density: 956.258 ± 0.17 kg/m3
303.15 K, x2 = 0.5011
  viscosity: 2.205 ± 0.025 mPa·s
  mass density: 939.966 ± 0.16 kg/m3
303.15 K, x2 = 0.6024
  viscosity: 2.068 ± 0.024 mPa·s
  mass density: 920.978 ± 0.15 kg/m3
303.15 K, x2 = 0.6997
  viscosity: 1.967 ± 0.023 mPa·s
  mass density: 899.43 ± 0.15 kg/m3
303.15 K, x2 = 0.7998
  viscosity: 1.933 ± 0.022 mPa·s
  mass density: 872.81 ± 0.15 kg/m3
303.15 K, x2 = 0.9004
  viscosity: 2.037 ± 0.023 mPa·s
  mass density: 839.81 ± 0.15 kg/m3
308.15 K, x2 = 0
  viscosity: 2.691 ± 0.032 mPa·s
  mass density: 997.104 ± 0.23 kg/m3
308.15 K, x2 = 0.1007
  viscosity: 2.513 ± 0.03 mPa·s
  mass density: 987.755 ± 0.21 kg/m3
308.15 K, x2 = 0.2003
  viscosity: 2.363 ± 0.028 mPa·s
  mass density: 977.28 ± 0.2 kg/m3
308.15 K, x2 = 0.3015
  viscosity: 2.229 ± 0.026 mPa·s
  mass density: 965.119 ± 0.18 kg/m3
308.15 K, x2 = 0.3991
  viscosity: 2.111 ± 0.025 mPa·s
  mass density: 951.674 ± 0.17 kg/m3
308.15 K, x2 = 0.5011
  viscosity: 1.984 ± 0.023 mPa·s
  mass density: 935.407 ± 0.16 kg/m3
308.15 K, x2 = 0.6024
  viscosity: 1.859 ± 0.022 mPa·s
  mass density: 916.445 ± 0.15 kg/m3
308.15 K, x2 = 0.6997
  viscosity: 1.762 ± 0.02 mPa·s
  mass density: 894.917 ± 0.15 kg/m3
308.15 K, x2 = 0.7998
  viscosity: 1.72 ± 0.02 mPa·s
  mass density: 868.357 ± 0.15 kg/m3
308.15 K, x2 = 0.9004
  viscosity: 1.786 ± 0.02 mPa·s
  mass density: 835.418 ± 0.16 kg/m3
313.15 K, x2 = 0
  viscosity: 2.426 ± 0.029 mPa·s
  mass density: 992.481 ± 0.23 kg/m3
313.15 K, x2 = 0.1007
  viscosity: 2.269 ± 0.027 mPa·s
  mass density: 983.135 ± 0.21 kg/m3
313.15 K, x2 = 0.2003
  viscosity: 2.139 ± 0.025 mPa·s
  mass density: 972.669 ± 0.2 kg/m3
313.15 K, x2 = 0.3015
  viscosity: 2.022 ± 0.024 mPa·s
  mass density: 960.509 ± 0.18 kg/m3
313.15 K, x2 = 0.3991
  viscosity: 1.914 ± 0.023 mPa·s
  mass density: 947.072 ± 0.17 kg/m3
313.15 K, x2 = 0.5011
  viscosity: 1.796 ± 0.021 mPa·s
  mass density: 930.813 ± 0.16 kg/m3
313.15 K, x2 = 0.6024
  viscosity: 1.681 ± 0.02 mPa·s
  mass density: 911.86 ± 0.15 kg/m3
313.15 K, x2 = 0.6997
  viscosity: 1.59 ± 0.019 mPa·s
  mass density: 890.367 ± 0.15 kg/m3
313.15 K, x2 = 0.7998
  viscosity: 1.54 ± 0.018 mPa·s
  mass density: 863.83 ± 0.15 kg/m3
313.15 K, x2 = 0.9004
  viscosity: 1.575 ± 0.018 mPa·s
  mass density: 830.95 ± 0.16 kg/m3
318.15 K, x2 = 0
  viscosity: 2.199 ± 0.026 mPa·s
  mass density: 987.859 ± 0.23 kg/m3
318.15 K, x2 = 0.1007
  viscosity: 2.069 ± 0.025 mPa·s
  mass density: 978.511 ± 0.21 kg/m3
318.15 K, x2 = 0.2003
  viscosity: 1.949 ± 0.023 mPa·s
  mass density: 968.041 ± 0.2 kg/m3
318.15 K, x2 = 0.3015
  viscosity: 1.836 ± 0.022 mPa·s
  mass density: 955.883 ± 0.18 kg/m3
318.15 K, x2 = 0.3991
  viscosity: 1.73 ± 0.021 mPa·s
  mass density: 942.446 ± 0.17 kg/m3
318.15 K, x2 = 0.5011
  viscosity: 1.629 ± 0.019 mPa·s
  mass density: 926.193 ± 0.16 kg/m3
318.15 K, x2 = 0.6024
  viscosity: 1.529 ± 0.018 mPa·s
  mass density: 907.25 ± 0.15 kg/m3
318.15 K, x2 = 0.6997
  viscosity: 1.445 ± 0.017 mPa·s
  mass density: 885.759 ± 0.15 kg/m3
318.15 K, x2 = 0.7998
  viscosity: 1.385 ± 0.016 mPa·s
  mass density: 859.246 ± 0.15 kg/m3
318.15 K, x2 = 0.9004
  viscosity: 1.397 ± 0.016 mPa·s
  mass density: 826.396 ± 0.16 kg/m3
323.15 K, x2 = 0
  viscosity: 2.006 ± 0.024 mPa·s
  mass density: 983.234 ± 0.23 kg/m3
323.15 K, x2 = 0.1007
  viscosity: 1.892 ± 0.023 mPa·s
  mass density: 973.877 ± 0.21 kg/m3
323.15 K, x2 = 0.2003
  viscosity: 1.787 ± 0.021 mPa·s
  mass density: 963.397 ± 0.2 kg/m3
323.15 K, x2 = 0.3015
  viscosity: 1.687 ± 0.02 mPa·s
  mass density: 951.237 ± 0.18 kg/m3
323.15 K, x2 = 0.3991
  viscosity: 1.591 ± 0.019 mPa·s
  mass density: 937.792 ± 0.17 kg/m3
323.15 K, x2 = 0.5011
  viscosity: 1.495 ± 0.018 mPa·s
  mass density: 921.533 ± 0.16 kg/m3
323.15 K, x2 = 0.6024
  viscosity: 1.402 ± 0.017 mPa·s
  mass density: 902.591 ± 0.15 kg/m3
323.15 K, x2 = 0.6997
  viscosity: 1.32 ± 0.016 mPa·s
  mass density: 881.097 ± 0.15 kg/m3
323.15 K, x2 = 0.7998
  viscosity: 1.259 ± 0.015 mPa·s
  mass density: 854.581 ± 0.15 kg/m3
323.15 K, x2 = 0.9004
  viscosity: 1.243 ± 0.015 mPa·s
  mass density: 821.735 ± 0.16 kg/m3
